{
  "source": "paper PMC12491701",
  "about": "“Discovery of an APP-selective BACE1 inhibitor for Alzheimer's disease” (Neurotherapeutics, 2025)",
  "key": {"BACE1": {"biological_target": "BACE1 (Homo sapiens, UniProt P56817)", "sequence (P56817 46-501)": "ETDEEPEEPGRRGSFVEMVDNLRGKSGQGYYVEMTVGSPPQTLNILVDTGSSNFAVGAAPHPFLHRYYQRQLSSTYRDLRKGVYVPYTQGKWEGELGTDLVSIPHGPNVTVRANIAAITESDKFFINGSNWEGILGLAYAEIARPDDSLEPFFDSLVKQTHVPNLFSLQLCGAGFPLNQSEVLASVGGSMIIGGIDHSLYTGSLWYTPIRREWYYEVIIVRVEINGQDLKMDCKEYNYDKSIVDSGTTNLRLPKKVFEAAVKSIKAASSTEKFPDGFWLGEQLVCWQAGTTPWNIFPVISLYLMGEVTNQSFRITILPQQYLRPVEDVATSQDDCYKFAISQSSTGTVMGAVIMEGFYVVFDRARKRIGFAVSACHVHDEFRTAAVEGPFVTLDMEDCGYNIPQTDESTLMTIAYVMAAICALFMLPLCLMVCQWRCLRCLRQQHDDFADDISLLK", "assay": "P5-P5′ BACE1 inhibition assay", "format": "biochemical", "conditions": "cell-free; read-out: BACE1 IC50 (P5-P5′ assay; BACE1-APP)", "description": "For the P5-P5′ BACE1 inhibition assay, 4 ​μL of assay buffer was added to each well, followed by 2 ​μL of BACE1 diluted in assay buffer to 7.5 ​ng/μL. Then, 2 ​μL of inhibitor, at concentrations along an 11 ​pt. two-fold dilution series starting at 10 ​μM, or 0.5 ​μM, were added to appropriate wells and incubated for 30 ​min at room temperature. For all dilutions of inhibitor, drug stock solutions of 10 ​mM in DMSO were diluted to 50 ​μM in water; subsequent dilutions were in 0.5 ​% DMSO. Afterwards, 2 ​μL of fluorogenic P5-P5′ BACE1 substrate, diluted to 50 ​μM in assay buffer, were added to each well and the signal generated was read every 30 ​min at 25 ​°C for 2 ​h."}, "BACE1 cleavage of NRG1": {"biological_target": "T1, BACE1 cleavage of NRG1 (Homo sapiens, UniProt P56817)", "T1 construct": "with or without full-length wild-type BACE1; expressed in transfected cells; host or cells: HEK293", "T1 sequence (P56817 46-501)": "as above", "assay": "SEAP-NRG assay", "format": "cell-based", "conditions": "SEAP-NRG1, HEK293", "description": "A cDNA construct encoding a human placental secreted alkaline phosphatase (SEAP)-NRG1 (pAPtag5-NRG1-β1) fusion protein was transfected in human embryonic kidney (HEK293) cells in a 6-well format with or without full-length wild-type BACE1 using Lipofectamine 2000 (Invitrogen) as described previously [27]. After transfection, the medium was replaced with DMEM containing the test compound at 10, 5, 1, 0.1, and 0.01 ​μM as well as 10 ​% heat-inactivated fetal bovine serum (FBS), then incubated for 24 ​h. SEAP activity was measured in the conditioned medium."}, "BACE1 cleavage of PSGL1": {"biological_target": "T2, BACE1 cleavage of PSGL1 (Homo sapiens, UniProt P56817)", "T2 construct": "with or without full-length wild-type BACE1; expressed in transfected cells; host or cells: HEK293", "T2 sequence (P56817 46-501)": "as above", "assay": "PSGL1 assay (SEAP-PSGL1)", "format": "cell-based", "conditions": "SEAP-PSGL1, HEK293", "description": "A cDNA construct encoding a human placental secreted alkaline phosphatase (SEAP)-PSGL1 (pAPtag5-PSGL1-β1) fusion protein was transfected in human embryonic kidney (HEK293) cells in a 6-well format with or without full-length wild-type BACE1 using Lipofectamine 2000 (Invitrogen). After 6–8 ​h transfection, the medium was replaced with DMEM containing the test compound at 10, 5, 1, 0.1 and 0.01 ​μM and 10 ​% heat-inactivated fetal bovine serum (FBS), and incubated for 24 ​h. SEAP activity was measured in the conditioned medium."}, "cathepsin D (CatD)": {"biological_target": "T3, cathepsin D (CatD) (Homo sapiens, UniProt P07339)", "T3 construct": "purchased R&D Systems 1014-AS", "T3 sequence (P07339 65-412)": "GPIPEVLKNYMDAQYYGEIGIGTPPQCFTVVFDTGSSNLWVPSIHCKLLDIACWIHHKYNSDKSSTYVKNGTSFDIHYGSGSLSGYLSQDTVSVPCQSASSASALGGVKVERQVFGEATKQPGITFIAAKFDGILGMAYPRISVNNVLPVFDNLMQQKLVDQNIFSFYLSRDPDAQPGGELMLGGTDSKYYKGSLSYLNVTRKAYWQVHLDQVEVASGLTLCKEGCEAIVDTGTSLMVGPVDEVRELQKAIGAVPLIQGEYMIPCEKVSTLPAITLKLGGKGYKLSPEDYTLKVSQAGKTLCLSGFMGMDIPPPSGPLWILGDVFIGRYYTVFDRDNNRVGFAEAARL", "assay": "Cathepsin D activity assay", "format": "biochemical", "conditions": "in words", "procedure": "The effects of candidate ASBIs on cathepsin D (CatD) activity was assessed using the R&D Systems CatD activity assay kit (Catalog #: 1014-AS and ES001) according to the manufacturer's instructions. For the assay, 4 μL of assay buffer was added to each well, followed by 2 μL of CatD diluted in assay buffer to 5 ng/uL. Then, 2 μL of inhibitor, at concentrations along an 11 pt. two-fold dilution series starting at 50 μM, were added to appropriated wells and incubated for 30 min at room temperature. For all dilutions of inhibitor, drug stock solutions of 10 mM in DMSO were diluted to 50 μM in water; subsequent dilutions were in 2.5 % DMSO. Afterwards, 2 μL of fluorogenic CatD substrate, diluted to 50 μM in assay buffer, were added to each well, after which the signal generated was read every 30 min at 25 °C for 1hr."}, "[1]": {"system": "CHO-7W cells expressing wildtype human APP", "assay": "sAPPβ and Aβ1-42 production in CHO-7W cells (AlphaLISA)", "format": "cell-based, Chinese hamster", "conditions": "1 μM, in words", "procedure": "Culture Media was collected and frozen. Media was assayed using an AlphaLISA for Aβ1-42 (Perkin Elmer catalog # AL276C), sAPPα (R&D Systems catalog # AF1168 conjugated with Perkin Elmer acceptor beads catalog # 6772001 + 2B3 antibody from IBL catalog # 11088 biotinylated), and sAPPβ (Perkin Elmer AL276-acceptor + IBL catalog # 18957 biotinylated). For the assay, 2 μL of diluted or undiluted sample was added to a 384 well plate, followed by 2 μL of the respective antibody mixture. This was incubated for 1 h. Afterwards, 2 μL of donor beads was added to each well, followed by a 30-min incubation in the dark, after which the signal was read."}, "eAPP": {"biological_target": "eAPP (Homo sapiens, UniProt P05067)", "sequence (P05067 18-701)": "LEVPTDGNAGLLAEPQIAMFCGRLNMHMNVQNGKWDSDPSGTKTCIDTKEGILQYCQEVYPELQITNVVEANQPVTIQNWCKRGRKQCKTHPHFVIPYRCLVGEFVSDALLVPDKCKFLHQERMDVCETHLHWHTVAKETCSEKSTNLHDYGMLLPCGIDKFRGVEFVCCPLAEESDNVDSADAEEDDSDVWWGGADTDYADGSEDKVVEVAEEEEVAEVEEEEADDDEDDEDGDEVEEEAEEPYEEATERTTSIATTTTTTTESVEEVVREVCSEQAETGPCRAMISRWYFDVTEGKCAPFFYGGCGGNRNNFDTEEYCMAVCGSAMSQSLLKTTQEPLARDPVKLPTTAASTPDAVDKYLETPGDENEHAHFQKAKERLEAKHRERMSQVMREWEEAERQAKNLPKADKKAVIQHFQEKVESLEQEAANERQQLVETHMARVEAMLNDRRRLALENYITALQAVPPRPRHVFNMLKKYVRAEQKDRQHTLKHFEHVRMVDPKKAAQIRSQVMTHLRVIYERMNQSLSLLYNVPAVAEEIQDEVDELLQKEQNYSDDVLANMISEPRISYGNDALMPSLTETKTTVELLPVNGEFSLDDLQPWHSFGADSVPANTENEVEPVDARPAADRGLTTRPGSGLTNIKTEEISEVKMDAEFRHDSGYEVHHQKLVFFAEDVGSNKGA", "assay": "APP binding by surface plasmon resonance (SPR)", "description": "The interaction of FAH3, 17 and 65 were evaluated using the SPR protocol described previously in Descamps et al., [26].\nFor these pilot experiments eAPP as described in Descamps et al (26) is crosslinked to a the CM5 Biacore chip. FAH3 at various concentration was used in the flow through the chip, and the plasmon resonance signal was determined using a Biacore T100. The raw data uncorrected for contribution of running buffer is fit to equilibrium binding data and corrected for the contribution of the running buffer to\nFor FAH17 and FAH65-APP binding was determined using SPR to determine competition with BSA that non-specifically binds to the eAPP-Biacore chip."}, "[2]": {"biological_target": "BACE1 cleavage of MBP-APPC125 substrate (Homo sapiens, UniProt P56817)", "sequence (P56817 46-501)": "as the sequence (P56817 46-501) above", "assay": "MBP-APPC125 BACE1 cleavage assay", "format": "biochemical", "conditions": "in words", "procedure": "(-)/peak 2 enantiomers. […] Specifically, 2 μL of the Acc-Mix was loaded into each well and incubated for 1-hour at RT, then 2 μL of Donor-Mix was added and incubated for 30 min at room RT protected from light. The signal was quantified using an Envision Plate reader (Fig S6). Testing of FA[…](-) in HEK-APP-GFP cells HEK293T cells stably transfected with human APP (P05067-1, […]) tagged with Green Fluorescent Protein (GFP) on the N-terminal (HEK-APP; AcroBiosystems cat# CHEK-ATP081) were cultured according to manufacturer recommendations. […] Cells were then washed with PBS and imaged at 37 °C and 5% CO2 using a BioTek Lionheart FX microscope using brightfield and green fluorescence filters with a 20X objective. Images were then processed with Gen5 software to obtain the total intensity of the GFP channel (469/525) and the mean GFP channel intensity.(Fig S7, S8) Supplementary Figures Figure S1. BACE inhibition dose-response and pharmacokinetics for FAH1 and FAH3. (a) IC50 curves for FAH1, 3, 17 and 65 in the P5-P5' assay described in main manuscript. […] μM, respectively. […] 150 FAH-65 BA C E-IV 100 50 0 50 10 0. 1 [ ] µM Figure S2. FAH65 in the BACE2 assay. […] 6 (1 picture or pasted object on this page, not shown here)"}},
  "note": "Values joined by “and” are separate entries in the source; they are usually repeats but may differ in a detail not shown here. Equal values may be shown once.",
  "data": [
    {"smiles": "Cc1cc(C2(c3cccc(F)c3)N=C(N)N(C)C2=O)ccc1OC(F)F", "note": "(stereo not drawn) [FAH17]", "values": [
      {"measurement": "IC50", "setting": "BACE1", "result": "~0.3 µM and 0.3 µM"},
      {"measurement": "EC50", "setting": "BACE1 cleavage of NRG1", "result": "> 10", "unit": "µM"},
      {"measurement": "EC50", "setting": "BACE1 cleavage of PSGL1", "result": "> 10", "unit": "µM"},
      {"measurement": "inhibition of cathepsin D activity", "setting": "cathepsin D (CatD)", "result": "Neither analog significantly inhibited"},
      {"measurement": "sAPPβ production", "setting": "[1]; 24-h treatment", "result": "decrease"},
      {"measurement": "Aβ1-42 production", "setting": "[1]", "result": "decrease"},
      {"measurement": "Kd", "setting": "eAPP", "result": "~3.3", "unit": "µM"}
    ]},
    {"smiles": "O=C1NC(=O)C(c2ccccc2)(c2ccccc2)N1", "note": "[phenytoin, reference compound]", "values": [
      {"measurement": "IC50", "setting": "BACE1", "result": "> 200", "unit": "µM"},
      {"measurement": "inhibition of BACE1 cleavage of MBP-APPC125", "setting": "[2]", "result": "weak inhibitor"}
    ]}
  ]
}
